Data as given in patent publication EP4696306A1, “ADENOSINE TRIPHOSPHATE SECRETION INHIBITOR, HEPATIC STELLATE CELL ACTIVATION INHIBITOR, HEPATIC STELLATE CELL DEACTIVATOR, HEPATIC FIBROSIS THERAPEUTIC AGENT, NON-ALCOHOLIC STEATOHEPATITIS THERAPEUTIC AGENT, PSORIASIS THERAPEUTIC AGENT, AND USE OF COMPOUND FOR PRODUCING ADENOSINE TRIPHOSPHATE …” (KURUME UNIVERSITY, priority 2023, dated 2024).

System: human epidermal keratinocytes
Assay: ATP secretion promoted by ionomycin in keratinocytes
Assay type: cell-based
Description: Human epidermal keratinocytes (Cryopreserved HEK, Lot 1758, Cell Applications Inc.) were cultured using an Epivita Keratinocyte Growth Medium Kit according to the manufacturer's instructions. The procedure was as follows. A supplement medium was added to a hydrocortisone-containing basal medium included in the medium preparation kit to prepare a complete medium. The medium in the dish was removed by aspiration. The cells were washed with 5 ml of BSS (Gbco), and then the BSS was removed by aspiration. After addition of 5 to 6 ml of trypsin/EDTA solution (Gbco), the dish was incubated at 37°C for 2 minutes. After addition of 5 ml of trypsin neutralization solution, the resulting cell suspension was transferred into two 15-ml Falcon tubes, and centrifuged at 200 × g for 5 minutes. The supernatant was removed by aspiration, and the pelleted cell cluster was suspended in 2 ml of the medium at 4.5 × 10^5 cells/ml. An aliquot of the resulting cell suspension was cryopreserved, while another aliquot was cultured and subjected to measurement.
ATP secretion by human epidermal keratinocytes (hereinafter referred to as "keratinocytes") was measured. Regarding control solutions, Krebs-Ringer HEPES supplemented with 0.2% BSA and 25 mM glucose (hereinafter also referred to as "Krebs/Iono(-)") was used as a negative control, and a solution prepared by adding 5 µM ionomycin to this solution (hereinafter also referred to as "Krebs/Iono(+)") was used as a positive control for ATP secretion. Ionomycin is a Ca^2+ ionophore. Addition of ionomycin to cells is known to promote influx of extracellular Ca^2+ into the cells to increase the intracellular Ca^2+ concentration, resulting in enhancement of ATP secretion. Test solutions were prepared by adding clodronate to Krebs/Iono(-) or Krebs/Iono(+) to a final concentration of 0.1 µM (hereinafter also referred to as "Clo/Iono(-)" or "Clo/Iono(+)", respectively) (N = 3).
Keratinocytes were cultured at 2.5 × 10^4 cells/well in a 24-well plate at 37°C in 5% CO2 for 4 days. The medium was removed by aspiration, replaced with Krebs/Iono(-) or Clo/Iono(-), and incubated at 37°C for 6 hours. These solutions were then removed by aspiration, and the content of each well incubated with Krebs/Iono(-) was replaced with 300 µl of a control solution (Krebs/Iono(-) or Krebs/Iono(+)), while the content of each well incubated with Clo/Iono(-) was replaced with 300 µl of a test solution (Clo/Iono(-) or Clo/Iono(+)). After further incubation at 37°C for 20 minutes, 200 µl of the supernatant was collected. The collected supernatant was immediately treated on a heat block at 95°C for 10 minutes, to inactivate ectonucleotidase. ATP in the supernatant was quantified using a Dojindo ATP assay kit - Luminescence (manufactured by Dojindo Laboratories).
After culturing keratinocytes, the medium was removed by aspiration, and replaced with Krebs/Iono(-), or Krebs/Iono(-) supplemented with 10 µM imeglimin, 0.1 µM EPA, 1 µM EPA, or 10 µM clodronate, followed by incubation for 6 hours. Subsequently, the solution was replaced with either a control solution (Krebs/Iono(-) or Krebs/Iono(+)) or a test solution (Krebs/Iono(+) supplemented with 10 µM imeglimin, 0.1 µM EPA, 1 µM EPA, or 10 µM clodronate), followed by incubation at 37°C for 20 minutes and then collection of 200 µl of the supernatant. The collected supernatant was immediately treated on a heat block at 95°C for 10 minutes to inactivate ectonucleotidase. ATP in the supernatant was quantified using a Dojindo ATP assay kit - Luminescence (manufactured by Dojindo Laboratories).
Keratinocytes were cultured in the same manner as in Example 1, and the medium was replaced with Krebs/Iono(-), Krebs/Iono(-) supplemented with 0.1 µM, 1 µM, or 10 µM imeglimin, or Krebs/Iono(-) supplemented with 0.1 µM, 1 µM, or 10 µM metformin, followed by incubation for 6 hours. […]

[1] = 10 µM, 6 hours incubation, then 20 minutes with ionomycin, N = 4

## C=C(OP(=O)(O)O)C(=O)O [PEP, phosphoenolpyruvic acid]
5 mM PEP, 20 minutes, N = 4
  ATP secretion promoted by ionomycin: inhibited
10 mM PEP, 20 minutes, N = 4
  ATP secretion promoted by ionomycin: inhibited
Data not shown
  concentration exhibiting a relatively strong ATP secretion inhibitory effect: not less than 3 mM

## O=P(O)(O)C(Cl)(Cl)P(=O)(O)O [clodronate]
0.1 µM clodronate, 6 hours incubation, then 20 minutes with 5 µM ionomycin, N = 3
  ATP secretion promoted by ionomycin: inhibits the ATP secretion promoted by ionomycin
[1]
  ATP secretion promoted by ionomycin: inhibited

## C[C@H]1N=C(N(C)C)N=C(N)N1 [imeglimin]
0.1 µM, 1 µM, 10 µM, 6 hours incubation, N = 3
  ATP secretion inhibitory effect, comparison and concentration dependence: slightly higher ATP secretion inhibitory effect than metformin
0.1 µM, 6 hours incubation, N = 3
  ATP secretion inhibitory effect: exhibit an ATP secretion inhibitory effect
1 µM imeglimin
  time required for production of a strong inhibitory effect: about 6 hours
1 µM imeglimin, incubation time 2 hours, N = 3
  ATP secretion level relative to that obtained using the control solution: about 85%
1 µM imeglimin, incubation time 6 hours, N = 3
  ATP secretion level relative to that obtained using the control solution: about 40%
10 µM imeglimin versus 1 µM EPA and 10 µM clodronate
  ATP secretion inhibitory effect compared with reference inhibitors: comparable to those of 1 µM EPA and 10 µM clodronate
[1]
  ATP secretion promoted by ionomycin: inhibited
